Measured values published in patent publication US11034725B2, “Compositions and methods for treating cardiovascular disease” (Genentech, Inc., priority 2016, dated 2021).
Square brackets hold non-standard residues; d marks the D form. Peptide text beside a SMILES is read from it. * marks the point of attachment. X1 = O=C([C@H]1CC[C@@H](c2ccccc2)CC1)*; Butanoyl(4-OPh) = O=C(CCCOc1ccccc1)*; Butanoyl(4-Ph) = O=C(CCCc1ccccc1)*; hArg = N=C(N)NCCCC[C@H](N)C(=O)O; X11 = O=C(CCCOc1ccc(Br)cc1)*; X25 = COc1cc(CCC(=O)*)ccc1O; X31 = Cc1ccc(OCCCC(=O)*)cc1; X7 = CCc1ccc(OCCCC(=O)*)cc1; X4 = Cc1ccc(OCCC(=O)*)cc1

Legend:
PCSK9 = PCSK9 (Homo sapiens, UniProt Q8NBP7); assay: PCSK9/EGF(A) TR-FRET binding assay; conditions: TR-FRET; Table 8E, additional compounds; read-out: PCSK9/EGF(A) IC50
PCSK9Δhelix = biological target: T1, PCSK9Δhelix (Homo sapiens, UniProt Q8NBP7); assay: PCSK9Δhelix/Ab20 TR-FRET binding assay; conditions: TR-FRET; Table 8E, additional compounds; read-out: PCSK9Δhelix/Ab20 IC50
T1 construct: Human PCSK9 construct M1-Q692 with an engineered TEV site (residue deletion Y166, R167); made in house; host or cells: CHO
T1 sequence (Q8NBP7 with tags, fused parts or gaps limits assumed): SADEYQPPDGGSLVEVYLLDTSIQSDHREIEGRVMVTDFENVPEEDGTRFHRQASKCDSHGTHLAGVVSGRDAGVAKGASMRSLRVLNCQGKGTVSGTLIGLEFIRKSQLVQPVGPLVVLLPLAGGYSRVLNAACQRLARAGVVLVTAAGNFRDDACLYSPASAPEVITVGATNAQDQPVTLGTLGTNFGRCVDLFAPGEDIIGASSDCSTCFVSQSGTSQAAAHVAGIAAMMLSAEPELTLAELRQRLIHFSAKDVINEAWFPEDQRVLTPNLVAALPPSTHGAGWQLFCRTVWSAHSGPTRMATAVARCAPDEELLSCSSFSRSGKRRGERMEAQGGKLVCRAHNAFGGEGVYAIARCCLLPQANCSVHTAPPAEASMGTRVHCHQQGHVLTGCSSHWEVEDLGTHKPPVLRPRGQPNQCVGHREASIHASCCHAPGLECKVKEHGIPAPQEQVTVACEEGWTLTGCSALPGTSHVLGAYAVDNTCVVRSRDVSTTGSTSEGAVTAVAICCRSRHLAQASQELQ
T1 sequence (Q8NBP7 31-152 partner limits assumed): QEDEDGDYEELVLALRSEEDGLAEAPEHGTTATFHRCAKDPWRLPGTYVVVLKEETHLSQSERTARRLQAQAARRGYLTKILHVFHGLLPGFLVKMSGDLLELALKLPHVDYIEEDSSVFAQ

Chain of PCSK9 (Q8NBP7 153-692): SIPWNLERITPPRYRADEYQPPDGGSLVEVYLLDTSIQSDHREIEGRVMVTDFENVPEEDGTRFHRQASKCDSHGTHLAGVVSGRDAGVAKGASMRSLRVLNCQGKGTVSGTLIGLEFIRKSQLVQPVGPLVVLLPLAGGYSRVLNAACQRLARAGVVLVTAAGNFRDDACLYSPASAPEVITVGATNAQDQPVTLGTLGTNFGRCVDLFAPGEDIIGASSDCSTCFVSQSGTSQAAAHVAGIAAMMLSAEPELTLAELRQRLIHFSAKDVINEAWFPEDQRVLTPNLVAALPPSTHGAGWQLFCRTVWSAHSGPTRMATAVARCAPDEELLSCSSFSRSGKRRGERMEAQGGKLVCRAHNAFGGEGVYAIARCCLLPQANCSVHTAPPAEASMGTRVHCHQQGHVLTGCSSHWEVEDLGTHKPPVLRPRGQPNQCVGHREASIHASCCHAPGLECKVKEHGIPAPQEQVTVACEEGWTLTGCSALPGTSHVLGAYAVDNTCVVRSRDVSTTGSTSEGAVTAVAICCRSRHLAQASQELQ
Chain of PCSK9 (Q8NBP7 31-152 partner limits assumed): as the sequence (Q8NBP7 31-152 partner limits assumed) above

SMILES	IC50 (PCSK9)	IC50 (PCSK9Δhelix)
CC[C@H](C)[C@H](NC(=O)[C@H](CCCCNC(=N)N)NC(=O)[C@@H](NC(=O)[C@H](CC(C)C)NC(=O)[C@H](CC(N)=O)NC(=O)[C@H](Cc1c[nH]c2ccccc12)NC(=O)CCCOc1ccc(Br)cc1)C(C)C)C(=O)NCC(=O)N[C@@H](CC(C)C)C(=O)N[C@@H](CC(C)C)C(=O)N[C@@H](CCCNC(=N)N)C(N)=O [Compound 206] (X11-WNLV[hArg]IGLLR-NH2)	1.8 µM	0.87 µM
CC[C@H](C)[C@H](NC(=O)[C@H](CCCCNC(=N)N)NC(=O)[C@@H](NC(=O)[C@H](CC(C)C)NC(=O)[C@H](CC(N)=O)NC(=O)[C@H](Cc1c[nH]c2ccccc12)NC(=O)CCCOc1ccc(C)cc1)C(C)C)C(=O)NCC(=O)N[C@@H](CC(C)C)C(=O)N[C@@H](CC(C)C)C(=O)N[C@@H](CCCNC(=N)N)C(N)=O [Compound 207] (X31-WNLV[hArg]IGLLR-NH2)	1.3 µM	0.32 µM
CC[C@H](C)[C@H](NC(=O)[C@H](CCCCNC(=N)N)NC(=O)[C@@H](NC(=O)[C@H](CC(C)C)NC(=O)[C@H](CC(N)=O)NC(=O)[C@H](Cc1c[nH]c2ccccc12)NC(=O)[C@H]1CC[C@@H](c2ccccc2)CC1)C(C)C)C(=O)NCC(=O)N[C@@H](CC(C)C)C(=O)N[C@@H](CC(C)C)C(=O)N[C@@H](CCCNC(=N)N)C(N)=O [Compound 208] (X1-WNLV[hArg]IGLLR-NH2)	0.45 µM	0.1 µM
CC[C@H](C)[C@H](NC(=O)[C@H](CCCCNC(=N)N)NC(=O)[C@@H](NC(=O)[C@H](CC(C)C)NC(=O)[C@H](CC(N)=O)NC(=O)[C@H](Cc1c[nH]c2ccccc12)NC(=O)CCCOc1ccccc1)C(C)C)C(=O)NCC(=O)N[C@@H](CC(C)C)C(=O)N[C@@H](CC(C)C)C(=O)N[C@@H](CCCNC(=N)N)C(N)=O [Compound 209] ({Butanoyl(4-OPh)}-WNLV[hArg]IGLLR-NH2)	2.9 µM	0.45 µM
CCc1ccc(OCCCC(=O)N[C@@H](Cc2c[nH]c3ccccc23)C(=O)N[C@@H](CC(N)=O)C(=O)N[C@@H](CC(C)C)C(=O)N[C@H](C(=O)N[C@@H](CCCCNC(=N)N)C(=O)N[C@H](C(=O)NCC(=O)N[C@@H](CC(C)C)C(=O)N[C@@H](CC(C)C)C(=O)N[C@@H](CCCNC(=N)N)C(N)=O)[C@@H](C)CC)C(C)C)cc1 [Compound 210] (X7-WNLV[hArg]IGLLR-NH2)	3 µM	0.84 µM
CC[C@H](C)[C@H](NC(=O)[C@H](CCCCNC(=N)N)NC(=O)[C@@H](NC(=O)[C@H](CC(C)C)NC(=O)[C@H](CC(N)=O)NC(=O)[C@H](Cc1c[nH]c2ccccc12)NC(=O)CCOc1ccc(C)cc1)C(C)C)C(=O)NCC(=O)N[C@@H](CC(C)C)C(=O)N[C@@H](CC(C)C)C(=O)N[C@@H](CCCNC(=N)N)C(N)=O [Compound 211] (X4-WNLV[hArg]IGLLR-NH2)	14 µM	3.8 µM
CC[C@H](C)[C@H](NC(=O)[C@H](CCCCNC(=N)N)NC(=O)[C@@H](NC(=O)[C@H](CC(C)C)NC(=O)[C@H](CC(N)=O)NC(=O)[C@H](Cc1c[nH]c2ccccc12)NC(=O)CCCc1ccccc1)C(C)C)C(=O)NCC(=O)N[C@@H](CC(C)C)C(=O)N[C@@H](CC(C)C)C(=O)N[C@@H](CCCNC(=N)N)C(N)=O [Compound 212] ({Butanoyl(4-Ph)}-WNLV[hArg]IGLLR-NH2)	15 µM	1.6 µM
CC[C@H](C)[C@H](NC(=O)[C@H](CCCCNC(=N)N)NC(=O)[C@@H](NC(=O)[C@H](CC(C)C)NC(=O)[C@H](CC(N)=O)NC(=O)[C@H](Cc1c[nH]c2ccccc12)NC(=O)CCc1ccc(O)c(OC)c1)C(C)C)C(=O)NCC(=O)N[C@@H](CC(C)C)C(=O)N[C@@H](CC(C)C)C(=O)N[C@@H](CCCNC(=N)N)C(N)=O [Compound 213] (X25-WNLV[hArg]IGLLR-NH2)	3.8 µM	0.2 µM
